What all share (assay type): cell-based, human
Assay [1] has as its system geranylgeranylated Rheb (Rheb-CSVL) in HEK 293 cells. The assay is described as follows: Rheb-CSVL mobility shift in HEK 293 cells. The note with it: 48 hours. An excerpt: Finally, we investigated in vivo effects of compounds 22 (also known as UC-22) and 23 (also known as UC-23). Human embryonic kidney (HEK) 293 cells were transfected with the Rheb-CSVL construct that expresses the geranylgeranylated form of the Rheb protein. Inhibition of the geranylgeranylation of this protein can be detected from a shift in its mobility on SDS polyacrylamide gel; the unprocessed form appears as a slowly migrating band.
Human embryonic kidney (HEK) 293 cells expressing Myc-HA tagged-Rheb-CVSL (upper) or Myc-HA tagged-Rheb-WT (lower) were treated with P3-E5 for 48 hours and then lysed. The cell lysates were run on a SDS polyacrylamide gel and immunoblotted using anti-Myc or anti-Actin antibody. The descriptors P and U indicate processed and unprocessed Rheb, respectively.
Human embryonic kidney (HEK) 293 cells expressing Myc-HA tagged-Rheb-CVSL (upper) or Myc-HA tagged-Rheb-WT (lower) were treated with mP5-H6a (also referred to as mP5-H6), or GGTI-298 for 48 hours and then lysed. Lysates were run on a SDS polyacrylamide gel and immunoblotted with anti-Myc or anti-Actin antibody.

A further assay deals with Panc-1. The assay is described as follows: Cell cycle distribution by flow cytometry, PANC-1. As to conditions: 10 μM, 48 hours. The procedure:
(§1) Cell viability was determined by Cell Counting Kit-8 (CCK-8, Dojindo, Kumamoto, Japan) as described previously (31). Cell viability was calculated relative to the DMSO control. Cell cycle profile was analyzed by flow cytometry as described previously (32).

The next assay concerns MiaPaCa2. Kind of assay: Cell cycle distribution by flow cytometry, MiaPaCa2. As to conditions: 10 μM, 48 hours. The procedure: as §1
In another assay the test system is MCF-7 cells. The assay is described as follows: Cell cycle profile by flow cytometry, MCF-7. The note with it: 48 hours, FIG. 37B. Here is the method: MCF-7 cells were treated with P61-A6, P61-B6 or DMSO for 72 hours. Cell viability relative to the DMSO control (100% value) is plotted. (B) MCF-7 cells were treated with indicated concentrations (μM) of P61-A6, P61-B6 or DMSO for 48 hours. Cell cycle profiles were monitored by flow cytometry. Percentages of cells in each phase of the cell cycle are indicated by different shades. (C) NIH3T3 cells were transfected with p21^CIP1/WAF1-luciferase or empty vector. Cells were treated with P61-A6 or P61-B6 compound at indicated concentrations or with DMSO for 48 hours and luciferase assay was performed. Data represent the mean+/−S.D. of two measurements from two independent experiments. *, P<0.05; **, P<0.005 compared with the value for DMSO.
as §1
A general note: Flow cytometry measures light scatter and fluorescence of single cells or particles in a stream.

Molecules are shown by their SMILES.

For the compound `Cc1ccccc1S(=O)(=O)N1[C@@H](c2cccc(Cl)c2)C(C(=O)O)=CC[C@H]1c1ccc(Cl)cc1` [P3-E5], the “inhibition of geranylgeranylation of Rheb-CSVL (slowly migrating unprocessed band)” value in assay [1] was “inhibits geranylgeranylation in cells”.

For `Cc1ccccc1S(=O)(=O)N1C(c2ccc(Cl)cc2)C(C(=O)NC(Cc2ccccc2)C(N)=O)=CC1C(C)(C)C` (stereo not drawn) [P61-A6], the “Percent G2/M, PANC-1” value in the assay with Panc-1 (DMSO 24.21) came out at 19.81%. Besides, the “Percent G0/G1, PANC-1” value in the assay with Panc-1 (DMSO 42.08) was found to be 54.13%. In the assay with MiaPaCa2 (DMSO 14.12), the “Percent G2/M, MiaPaCa2” value worked out at 10.81%. Moreover, the “Percent G0/G1, MiaPaCa2” value in the assay with MiaPaCa2 (DMSO 77.85) was 87.98%. Also, the “cell cycle effect in MCF-7” value with MCF-7 cells is on record as “dose-dependent enrichment of G1 phase cells”.

Source of the values: patent US8815935B2, “Inhibitors of protein prenyltransferases” (The Regents of the University of California, priority 2008, dated 2014).
